Measurements from patent publication US20150313225A1.
Read-outs that look alike come from different tables or passages of the source.

Assays:
Format in all cases: cell-based
Botrytis cinerea = experiment: Microtiterplate test against the grey mold Botrytis cinerea (Botrci); conditions: solo product
Alternaria solani = experiment: Microtest against early blight caused by Alternaria solani (Alteso); conditions: solo product; for inhibition of growth at 4e-06 ppm: 0.000004 ppm; for inhibition of growth at 6.3e-05 ppm: 0.000063 ppm
Phytophthora infestans = experiment: microbe, parasite or virus in culture; conditions: for Observed efficacy: solo product
Septoria tritici = experiment: Microtest against leaf blotch on wheat caused by Septoria tritici (Septtr); conditions: solo product; for inhibition of growth at 4e-06 ppm: 0.000004 ppm; for inhibition of growth at 1.6e-05 ppm: 0.000016 ppm
Leptosphaeria nodorum = experiment: Microtest against wheat leaf spots caused by Leptosphaeria nodorum (Leptno); conditions: Parastagonospora nodorum, 168 h, solo product, read-out: Observed efficacy
Pyricularia oryzae = experiment: microbe, parasite or virus in culture; conditions: for Observed efficacy: solo product
[1] = Botrytis cinerea, 168 h, 0.25 ppm, read-out: Observed efficacy
[2] = Botrytis cinerea, 168 h, read-out: Observed efficacy
[3] = Alternaria solani, 168 h, 0.063 ppm, read-out: Observed efficacy
[4] = Phytophthora infestans, 168 h, read-out: Observed efficacy
[5] = Zymoseptoria tritici, 168 h, 0.001 ppm, read-out: Observed efficacy
[6] = Botrytis cinerea, 168 h, 16 ppm, read-out: Observed efficacy
[7] = Alternaria solani, 168 h, 4 ppm, read-out: Observed efficacy
[8] = Alternaria solani, 168 h, 16 ppm, read-out: Observed efficacy
[9] = Pyricularia oryzae, 168 h, read-out: Observed efficacy
[10] = Botrytis cinerea, 168 h, 0.063 ppm, read-out: Observed efficacy
[11] = Alternaria solani, 168 h, 0.004 ppm, read-out: Observed efficacy
[12] = Botrytis cinerea, 168 h, 4 ppm, read-out: Observed efficacy
[13] = Alternaria solani, 168 h, 0.25 ppm, read-out: Observed efficacy
[14] = Alternaria solani, 168 h, read-out: Observed efficacy
[15] = Zymoseptoria tritici, 168 h, read-out: Observed efficacy
[16] = Zymoseptoria tritici, 168 h, […], read-out: Observed efficacy
[17] = Alternaria solani, 168 h, 0.016 ppm, read-out: Observed efficacy

CC(C)(C)C(O)(CCc1ccc(Cl)cc1)Cn1cncn1 (centres unmarked) [Tebuconazol]
Observed efficacy (Botrytis cinerea; 0.016 ppm): 9
Observed efficacy (Alternaria solani; 0.016 ppm): 8
Observed efficacy (Phytophthora infestans; 0.016 ppm): 1
Observed efficacy (Septoria tritici; 0.016 ppm): 5

CCCC(Cn1cncn1)(OC)c1ccc(Oc2ccc(Cl)cc2)cc1Cl (centres unmarked) [I-22, 1-[2-[2-chloro-4-(4-chlorophenoxy)phenyl]-2-methoxy-pentyl]-1,2,4-triazole]
inhibition of growth at […] (Botrytis cinerea; [1]): 1%
inhibition of growth at 1 ppm (Botrytis cinerea; [2]): 34%
inhibition of growth at […] (Leptosphaeria nodorum; 0.063 ppm): 25%
inhibition of growth at […] (Alternaria solani; [3]): 25%
inhibition of growth at 63 ppm (Phytophthora infestans; [4]): 41%
inhibition of growth at 0.001 ppm (Septoria tritici; [5]): 10%

Cc1ccc(-c2c(Cl)nc(C#N)n2S(=O)(=O)N(C)C)cc1 [II-12, cyazofamid, reference compound]
inhibition of growth at 16 ppm (Botrytis cinerea; [6]): 24%
inhibition of growth at 4 ppm (Alternaria solani; [7]): 14%
inhibition of growth at 16 ppm (Alternaria solani; [8]): 35%
inhibition of growth at 0.004 ppm (Phytophthora infestans; [4]): 8%
inhibition of growth at 16 ppm (Septoria tritici; Zymoseptoria tritici, 168 h, 16 ppm, read-out: Observed efficacy): 40%
inhibition of growth at 4 ppm (Pyricularia oryzae; [9]): 9%

COC(C)(Cn1cncn1)c1ccc(Oc2ccc(Cl)cc2)cc1Cl (centres unmarked) [I-20, 1-[2-[2-chloro-4-(4-chlorophenoxy)phenyl]-2-methoxy-propyl]-1,2,4-triazole]
inhibition of growth at […] (Botrytis cinerea; [10]): 16%
inhibition of growth at […] (Botrytis cinerea; [1]): 16%
inhibition of growth at 1 ppm (Botrytis cinerea; [2]): 58%
inhibition of growth at 0.001 ppm (Leptosphaeria nodorum): 5%
inhibition of growth at 0.004 ppm (Leptosphaeria nodorum): 10%
inhibition of growth at 0.016 ppm (Leptosphaeria nodorum): 14%
inhibition of growth at 0.004 ppm (Alternaria solani; [11]): 0%
inhibition of growth at […] (Alternaria solani; [3]): 30%
inhibition of growth at 0.001 ppm (Septoria tritici; [5]): 5%
inhibition of growth at 0.016 ppm (Pyricularia oryzae; [9]): 0%

N#Cc1c(Cl)c(Cl)c(Cl)c(C#N)c1Cl [II-11, chlorothalonil, reference compound]
inhibition of growth at 1 ppm (Botrytis cinerea; [2]): 23%
inhibition of growth at 4 ppm (Botrytis cinerea; [12]): 41%
inhibition of growth at 1 ppm (Leptosphaeria nodorum): 28%
inhibition of growth at […] (Alternaria solani; [3]): 4%
inhibition of growth at […] (Alternaria solani; [13]): 2%
inhibition of growth at 0.016 ppm (Phytophthora infestans; [4]): 2%

CN1COCN(Cc2cnc(Cl)s2)/C1=N\[N+](=O)[O-] [II-42c, thiamethoxam, reference compound]
inhibition of growth at 63 ppm (Botrytis cinerea; Botrytis cinerea, 168 h, 63 ppm, read-out: Observed efficacy): 8%
inhibition of growth at 1 ppm (Leptosphaeria nodorum): 22%
inhibition of growth at 4 ppm (Leptosphaeria nodorum; 4 ppm): 51%
inhibition of growth at […] (Alternaria solani; [13]): 8%
inhibition of growth at 1 ppm (Alternaria solani; [14]): 10%
inhibition of growth at 4 ppm (Alternaria solani; [7]): 51%
inhibition of growth at 1 ppm (Phytophthora infestans; [4]): 1%
inhibition of growth at 4 ppm (Phytophthora infestans; [4]): 2%
inhibition of growth at 1 ppm (Septoria tritici; Zymoseptoria tritici, 168 h, 1 ppm, read-out: Observed efficacy): 57%
inhibition of growth at 0.016 ppm (Pyricularia oryzae; [9]): 3%
inhibition of growth at 1 ppm (Pyricularia oryzae; [9]): 56%

CC(O)(Cn1cncn1)c1ccc(Oc2ccc(Cl)cc2)cc1Cl (centres unmarked) [I-17, 2-[2-chloro-4-(4-chlorophenoxy)phenyl]-1-(1,2,4-triazol-1-yl)propan-2-ol]
inhibition of growth at 6.3e-05 ppm (Botrytis cinerea; Botrytis cinerea, 168 h, 0.000063 ppm, read-out: Observed efficacy): 9%
inhibition of growth at […] (Botrytis cinerea; [10]): 0%
inhibition of growth at […] (Botrytis cinerea; [1]): 0%
inhibition of growth at 4e-06 ppm (Alternaria solani; [14]): 6%
inhibition of growth at 1.6e-05 ppm (Alternaria solani; Alternaria solani, 168 h, 0.000016 ppm, read-out: Observed efficacy): 0%
inhibition of growth at 6.3e-05 ppm (Alternaria solani; [14]): 0%
inhibition of growth at 16 ppm (Phytophthora infestans; [4]): 5%
inhibition of growth at 1e-06 ppm (Septoria tritici; Zymoseptoria tritici, 168 h, 0.000001 ppm, read-out: Observed efficacy): 14%
inhibition of growth at 4e-06 ppm (Septoria tritici; [15]): 12%
inhibition of growth at 1.6e-05 ppm (Septoria tritici; [15]): 19%
inhibition of growth at 2.5e-07 ppm (Septoria tritici; [16]): 10%
inhibition of growth at 1 ppm (Pyricularia oryzae; [9]): 61%

O=c1c2cc(F)ccc2nc(-n2cncn2)n1-c1ccc(Cl)cc1Cl [Fluquinconazol]
Observed efficacy (Phytophthora infestans; 4 ppm): 0

CCC(Cn1cncn1)(OC)c1ccc(Oc2ccc(Cl)cc2)cc1Cl (centres unmarked) [I-21, 1-[2-[2-chloro-4-(4-chlorophenoxy)phenyl]-2-methoxy-butyl]-1,2,4-triazole]
inhibition of growth at […] (Botrytis cinerea; [10]): 18%
inhibition of growth at […] (Leptosphaeria nodorum; 0.00025 ppm): 12%
inhibition of growth at 0.001 ppm (Leptosphaeria nodorum): 22%
inhibition of growth at […] (Alternaria solani; Alternaria solani, 168 h, 0.00025 ppm, read-out: Observed efficacy): 2%
inhibition of growth at 0.004 ppm (Alternaria solani; [11]): 5%
inhibition of growth at 63 ppm (Phytophthora infestans; [4]): 29%
inhibition of growth at 4e-06 ppm (Septoria tritici; [15]): 17%
inhibition of growth at 6.3e-05 ppm (Septoria tritici; [16]): 25%
inhibition of growth at 0.016 ppm (Pyricularia oryzae; [9]): 1%

C#CCC(O)(Cn1cncn1)c1ccc(Oc2ccc(Cl)cc2)cc1Cl (centres unmarked) [I-25, 2-[2-chloro-4-(4-chlorophenoxy)phenyl]-1-(1,2,4-triazol-1-yl)pent-4-yn-2-ol]
inhibition of growth at 0.004 ppm (Botrytis cinerea; Botrytis cinerea, 168 h, 0.004 ppm, read-out: Observed efficacy): 9%
inhibition of growth at 0.016 ppm (Botrytis cinerea; Botrytis cinerea, 168 h, 0.016 ppm, read-out: Observed efficacy): 16%
inhibition of growth at […] (Botrytis cinerea; [10]): 23%
inhibition of growth at […] (Botrytis cinerea; [1]): 49%
inhibition of growth at 4e-06 ppm (Leptosphaeria nodorum; 0.000004 ppm): 14%
inhibition of growth at 1.6e-05 ppm (Leptosphaeria nodorum; 0.000016 ppm): 22%
inhibition of growth at 4e-06 ppm (Alternaria solani; [14]): 7%
inhibition of growth at 6.3e-05 ppm (Alternaria solani; [14]): 1%
inhibition of growth at 16 ppm (Phytophthora infestans; [4]): 0%
inhibition of growth at 1.6e-05 ppm (Septoria tritici; [15]): 12%
inhibition of growth at 0.001 ppm (Septoria tritici; [5]): 37%
inhibition of growth at 6.3e-05 ppm (Septoria tritici; [16]): 12%

COC(=O)N(OC)c1ccccc1COc1ccn(-c2ccc(Cl)cc2)n1 [II-66, pyraclostrobin, reference compound]
inhibition of growth at 4 ppm (Botrytis cinerea; [12]): 29%
inhibition of growth at 16 ppm (Botrytis cinerea; [6]): 66%
inhibition of growth at 0.004 ppm (Alternaria solani; [11]): 8%
inhibition of growth at 0.016 ppm (Phytophthora infestans; [4]): 9%
inhibition of growth at 0.001 ppm (Septoria tritici; [5]): 12%
inhibition of growth at 0.004 ppm (Septoria tritici; Zymoseptoria tritici, 168 h, 0.004 ppm, read-out: Observed efficacy): 37%
inhibition of growth at 6.3e-05 ppm (Septoria tritici; [16]): 7%
inhibition of growth at 0.004 ppm (Pyricularia oryzae; [9]): 59%

CC(C)C1C2CCC1c1c(NC(=O)c3cn(C)nc3C(F)F)cccc12 (centres unmarked) [II-50, isopyrazam, reference compound]
Observed efficacy (Botrytis cinerea; 0.016 ppm): 6
Observed efficacy (Alternaria solani; 0.016 ppm): 15
Observed efficacy (Phytophthora infestans; 16 ppm): 23
Observed efficacy (Pyricularia oryzae; 0.004 ppm): 1

CCCCCCCCc1c(CC)nc2ncnn2c1N [II-1, ametoctradin, reference compound]
Observed efficacy (Botrytis cinerea; 16 ppm): 3
Observed efficacy (Botrytis cinerea; 63 ppm): 4
Observed efficacy (Alternaria solani; 4 ppm): 5
Observed efficacy (Alternaria solani; 16 ppm): 2
Observed efficacy (Alternaria solani; 63 ppm): 6
Observed efficacy (Phytophthora infestans; 1 ppm): 75

N#Cc1nn(-c2c(Cl)cc(C(F)(F)F)cc2Cl)c(N)c1[S+]([O-])C(F)(F)F (centres unmarked) [II-20c, fipronil, reference compound]
inhibition of growth at 1 ppm (Alternaria solani; [14]): 6%
inhibition of growth at 4 ppm (Alternaria solani; [7]): 2%
inhibition of growth at 1 ppm (Phytophthora infestans; [4]): 4%
inhibition of growth at 4 ppm (Pyricularia oryzae; [9]): 1%
inhibition of growth at 16 ppm (Pyricularia oryzae; [9]): 8%

CO/N=C(/C1=NOCCO1)c1ccccc1Oc1ncnc(Oc2ccccc2Cl)c1F [II-37, fluoxastrobin, reference compound]
inhibition of growth at 1 ppm (Botrytis cinerea; [2]): 5%
inhibition of growth at 4 ppm (Botrytis cinerea; [12]): 10%
inhibition of growth at 16 ppm (Botrytis cinerea; [6]): 23%
inhibition of growth at 0.016 ppm (Alternaria solani; [17]): 11%
inhibition of growth at […] (Alternaria solani; [3]): 27%
inhibition of growth at 0.016 ppm (Phytophthora infestans; [4]): 4%
inhibition of growth at 0.004 ppm (Pyricularia oryzae; [9]): 3%
inhibition of growth at 0.016 ppm (Pyricularia oryzae; [9]): 8%

COCC(O)(Cn1cncn1)c1ccc(Oc2ccc(Cl)cc2)cc1Cl (centres unmarked) [I-26, 2-[2-chloro-4-(4-chlorophenoxy)phenyl]-1-methoxy-3-(1,2,4-triazol-1-yl)propan-2-ol]
inhibition of growth at […] (Botrytis cinerea; [10]): 44%
inhibition of growth at 0.001 ppm (Leptosphaeria nodorum): 9%
inhibition of growth at 0.004 ppm (Leptosphaeria nodorum): 15%
inhibition of growth at 0.016 ppm (Leptosphaeria nodorum): 24%
inhibition of growth at 0.001 ppm (Alternaria solani; Alternaria solani, 168 h, 0.001 ppm, read-out: Observed efficacy): 5%
inhibition of growth at 0.016 ppm (Alternaria solani; [17]): 4%
inhibition of growth at 0.001 ppm (Septoria tritici; [5]): 29%
inhibition of growth at 6.3e-05 ppm (Septoria tritici; [16]): 19%
inhibition of growth at 0.016 ppm (Pyricularia oryzae; [9]): 0%
inhibition of growth at 1 ppm (Pyricularia oryzae; [9]): 55%

CO/C=C(/C(=O)OC)c1ccccc1Oc1cc(Oc2ccccc2C#N)ncn1 [II-3, azoxystrobin, reference compound]
Observed efficacy (Botrytis cinerea; 4 ppm): 14
Observed efficacy (Botrytis cinerea; 16 ppm): 23
Observed efficacy (Alternaria solani; 0.004 ppm): 6
Observed efficacy (Alternaria solani; 0.016 ppm): 14
Observed efficacy (Phytophthora infestans; 0.016 ppm): 2
Observed efficacy (Septoria tritici; 0.001 ppm): 12
Observed efficacy (Pyricularia oryzae; 0.004 ppm): 1

CCN(Cc1ccc(Cl)nc1)/C(=C/[N+](=O)[O-])NC [Nitenpyram]
inhibition of growth at 63 ppm (Leptosphaeria nodorum; 63 ppm): 23%
inhibition of growth at 4 ppm (Alternaria solani; [7]): 2%
inhibition of growth at 16 ppm (Alternaria solani; [8]): 2%
inhibition of growth at 63 ppm (Alternaria solani; Alternaria solani, 168 h, 63 ppm, read-out: Observed efficacy): 8%
inhibition of growth at 63 ppm (Septoria tritici; Zymoseptoria tritici, 168 h, 63 ppm, read-out: Observed efficacy): 10%
inhibition of growth at 4 ppm (Pyricularia oryzae; [9]): 1%
inhibition of growth at 16 ppm (Pyricularia oryzae; [9]): 0%
inhibition of growth at 63 ppm (Pyricularia oryzae; [9]): 3%

CC1(C)CCC(Cc2ccc(Cl)cc2)C1(O)Cn1cncn1 (centres unmarked) [Metconazol]
Observed efficacy (Alternaria solani; 0.016 ppm): 17
Observed efficacy (Phytophthora infestans; 0.004 ppm): 2
Observed efficacy (Septoria tritici; 0.016 ppm): 24
Observed efficacy (Pyricularia oryzae; 1 ppm): 58
